Reference: ChEMBL document CHEMBL5360530, “Structure activity relationship (SAR) and anticancer activity of pyrrolidine derivatives: Recent developments and future prospects (A review)” (Eur J Med Chem, 2023)
Converted amounts (≈) assume the structure as drawn. Square brackets hold non-standard residues; d marks the D form. Peptide text beside a SMILES is read from it. * marks the point of attachment. ξ: configuration not given here. X2 = CC[C@H](C)[C@@H](CN[C@@H](Cc1ccccc1)C(=O)OC)N*; X1 = O=C(OC(C(F)(F)F)C(F)(F)F)*; ξP = O=C(O)C1CCCN1

Legend:
P388 = assay: Anticancer activity against P388 cells assessed as cell growth inhibition; type: functional, cell-based; conditions: Mus musculus
A549 [1] = assay: Anticancer activity against human A549 cells assessed as cell growth inhibition measured after 72 hrs by CCK-8 assay; type: functional, cell-based; conditions: A549, 72 h
HCT-116 [2] = assay: Anticancer activity against human HCT-116 cells assessed as cell growth inhibition measured after 72 hrs by CCK-8 assay; type: functional, cell-based; conditions: HCT-116, 72 h
MDA-MB-231 = assay: Anticancer activity against human MDA-MB-231 cells assessed as cell growth inhibition measured after 72 hrs by CCK-8 assay; type: functional, cell-based; conditions: MDA-MB-231, 72 h
HeLa = assay: Anticancer activity against human HeLa cells assessed as cell growth inhibition measured after 48 hrs by MTT assay; type: functional, cell-based
A549 [3] = assay: Anticancer activity against human A549 cells assessed as cell growth inhibition by MTT assay; type: functional, cell-based
SH-SY5Y = assay: Anticancer activity against human SH-SY5Y cells assessed as cell death upto 1000 ug/ml measured upto 72 hrs by MTT assay relative to control; type: functional; conditions: dose <= 1000 µg/ml, up to 1000 µg/mL
HT-29 [4] = assay: Anticancer activity against human HT-29 cells assessed as cell death upto 1000 ug/ml measured upto 72 hrs by MTT assay relative to control; type: functional; conditions: dose <= 1000 µg/ml, up to 1000 µg/mL
HCT-116 [5] = assay: Anticancer activity against human HCT-116 cells assessed as cell growth inhibition measured after 24 hrs by SRB assay; type: functional, cell-based; conditions: HCT-116, 24 h
HepG2 = assay: Anticancer activity against human HepG2 cells assessed as cell growth inhibition measured after 24 hrs by SRB assay; type: functional, cell-based; conditions: HepG2, 24 h
MCF7 [6] = assay: Anticancer activity against human MCF7 cells assessed as cell growth inhibition measured after 24 hrs by SRB assay; type: functional, cell-based; conditions: MCF7, 24 h
A549 [7] = assay: Anticancer activity against human A549 cells assessed as cell growth inhibition measured after 24 hrs by MTT assay; type: functional, cell-based; conditions: A549, 24 h
COS-7 = assay: Anticancer activity against COS-7 cells assessed as cell growth inhibition at 50 uM measured after 48 hrs by MTT assay relative to control; type: functional; conditions: Chlorocebus aethiops
MCF7 [8] = assay: Anticancer activity against human MCF7 cells assessed as cell growth inhibition at 50 uM measured after 48 hrs by MTT assay relative to control; type: functional
HT-29 [9] = assay: Anticancer activity against human HT-29 cells xenografted with BALB/c mouse assessed as tumor growth inhibition at 50 mg/kg, iv measured twice daily for 20 days relative to control; type: functional; conditions: HT-29, 480 h, time 20 day, read-out: TGI
HT-29 [10] = assay: Anticancer activity against human HT-29 cells xenografted with BALB/c mouse assessed as tumor growth inhibition at 50 mg/kg, po measured twice daily for 20 days relative to control; type: functional; conditions: HT-29, 480 h, time 20 day, read-out: TGI
HT-29 [11] = assay: Anticancer activity against human HT-29 cells assessed as cell growth inhibition measured after 48 hrs by MTT assay; type: functional, cell-based; conditions: HT-29, 48 h
K562 [12] = assay: Anticancer activity against human K562 cells assessed as cell growth inhibition measured after 48 hrs by MTT assay; type: functional, cell-based; conditions: K562, 48 h
MCF7 [13] = assay: Anticancer activity against human MCF7 cells assessed as cell growth inhibition measured after 48 hrs by MTT assay; type: functional, cell-based; conditions: MCF7, 48 h
[14] = Cytotoxicity against human Adipose tissue derived mesenchymal stem cell assessed as cell growth inhibition measured after 48 hrs by MTT assay; type: toxicity, cell-based; conditions: adipose tissue derived mesenchymal stem cells
HCT-116 [15] = assay: Anticancer activity against human HCT-116 cells assessed as cell growth inhibition measured after 48 hrs by MTT assay; type: functional, cell-based; conditions: HCT-116, 48 h
Jurkat = assay: Anticancer activity against human Jurkat cells assessed as cell growth inhibition measured after 48 hrs by MTT assay; type: functional, cell-based
A549 [16] = assay: Anticancer activity against human A549 cells assessed as cell viability at 50 ug/ml measured after 24 hrs by MTT assay relative to control; type: functional; conditions: read-out: Activity
A549 [17] = assay: Anticancer activity against human A549 cells assessed as cell viability at 100 ug/ml measured after 24 hrs by MTT assay relative to control; type: functional; conditions: read-out: Activity
A549 [18] = assay: Anticancer activity against human A549 cells assessed as cell viability measured after 24 hrs by MTT assay; type: functional, cell-based; conditions: A549, 24 h
MCF7 [19] = assay: Anticancer activity against human MCF7 cells assessed as cell growth inhibition by MTT assay; type: functional, cell-based
HT-29 [20] = assay: Anticancer activity against human HT-29 cells assessed as cell growth inhibition measured after 24 hrs by MTT assay; type: functional, cell-based; conditions: HT-29, 24 h
MCF7 [21] = assay: Anticancer activity against human MCF7 cells assessed as cell growth inhibition measured after 48 hrs by WST-1 assay; type: functional, cell-based; conditions: MCF7, 48 h
K562 [22] = assay: Anticancer activity against human K562 cells assessed as cell growth inhibition measured after 48 hrs by WST-1 assay; type: functional, cell-based; conditions: K562, 48 h
M-HeLa [23] = assay: Anticancer activity against human HelaM cells assessed as cell growth inhibition measured after 24 hrs by DAPI and propidium iodide staining based assay; type: functional
M-HeLa [24] = assay: Induction of apoptosis in human HelaM cells upto 100 uM measured after 24 hrs relative to control; type: functional; conditions: up to 100 µM
[25] = Cytotoxicity against human Chang liver cells assessed as cell growth inhibition measured after 24 hrs by DAPI and propidium iodide staining based assay; type: toxicity

## O=C(/C=C/c1ccc(O)cc1)N1CCCC1
P388
  IC50: 11.3 µg/mL (≈ 52.2 µM)

## OC(CN1CCCCC1)Cn1c2ccc(Cl)cc2c2cc(Cl)ccc21 (configuration not stated)
A549 [1]
  IC50: 6 µM
HCT-116 [2]
  IC50: 6 µM
MDA-MB-231
  IC50: 6 µM

## CC[C@H](C)[C@H](NC(=O)OC(C(F)(F)F)C(F)(F)F)C(=O)N[C@@H](CC(C)C)C(=O)N1CCCC1C(=O)N[C@@H](CC(C)C)C(=O)N[C@H](C(=O)OC)C(C)C (some centres not stated) (X1-IL[ξP]LV-OMe)
HeLa
  IC50: 2.73 µM

## CCOC(=O)[C@H]1CCCN1C(=O)Cc1noc2ccccc12
A549 [3]
  IC50: 361 µM

## CC[C@H](C)[C@@H](CN[C@@H](Cc1ccccc1)C(=O)OC)NC(=O)[C@@H]1CCCN1C(=O)[C@H](CC(C)C)NC(=O)[C@@H]1CCCN1C(=O)[C@H](CC(C)C)NC(=O)OC(C(F)(F)F)C(F)(F)F (X1-LPLP-X2)
HeLa
  IC50: 4.3 µM

## CCn1c2ccccc2c2cc(NC(=O)CCN3CCCC3)ccc21
SH-SY5Y
  Activity: 61%
HT-29 [4]
  Activity: 66%

## COc1cccc2c1C(=O)c1c(O)c3c(c(O)c1C2=O)C[C@@](O)(C(=O)CO)C[C@@H]3O[C@H]1C[C@H](N)[C@H](O)[C@H](C)O1 [DOXORUBICIN]
HCT-116 [5]
  IC50: 7.03 µM
HepG2
  IC50: 5.59 µM
MCF7 [6]
  IC50: 4.89 µM

## COc1ccc([C@@H]2[C@H]([N+](=O)[O-])[C@H](Cc3ccc(O)cc3)NC23C(=O)c2cccc4cccc3c24)cc1 (some centres not stated)
A549 [7]
  IC50: 96.5 µM

## O=C1Nc2ccccc2C12CCNC2c1ccccc1 (configuration not stated)
COS-7
  inhibition at 50 µM: 0.51%
MCF7 [8]
  inhibition at 50 µM: 25.2%

## Cc1ccc(C2CC(c3ccc(F)cc3)=NN2C(=O)CN2C(=O)CCC2=O)cc1 (configuration not stated)
HT-29 [9]
  inhibition in vivo at 50 mg/kg: 66%
HT-29 [10]
  inhibition in vivo at 50 mg/kg: 60%
HT-29 [11]
  IC50: 0.92 µM
K562 [12]
  IC50: 47.2 µM
MCF7 [13]
  IC50: 0.07 µM

## O=C1CCC(=O)N1c1ccc(O)cc1
[14]
  IC50 at 48 h: 1.32 µM
HCT-116 [15]
  IC50: 1.74 µM
HT-29 [11]
  IC50: 1.03 µM

## O=C1C2=CC=CC3C=CC=C(C23)C12N[C@@H](Cc1ccc(O)cc1)[C@@H]([N+](=O)[O-])[C@H]2c1ccc(Cl)cc1 (some centres not stated)
A549 [7]
  IC50: 40.2 µM
Jurkat
  IC50: 33.6 µM

## O=C1C2=CC=CC3C=CC=C(C23)C12N[C@@H](Cc1ccc(O)cc1)[C@@H]([N+](=O)[O-])[C@H]2c1ccc(Br)cc1 (some centres not stated)
A549 [7]
  IC50: 65.7 µM
Jurkat
  IC50: 33.1 µM

## O=C1CCC(=O)N1CN(Cc1ccccc1)Cc1ccccc1
A549 [16]
  viability at 50 µg/mL: 78.8%
A549 [17]
  viability at 100 µg/mL: 72%
A549 [18]
  IC50: 176 µg/mL (≈ 572 µM)

## O=C(/C=C/c1ccc(O)c(O)c1)N1CCCC1
P388
  IC50: 53.5 µg/mL (≈ 229 µM)

## N#C[C@@H]1CCCN1C(=O)Cc1noc2ccccc12
MCF7 [19]
  IC50: 2.36 µM
A549 [3]
  IC50: 90.3 µM

## NC(=O)[C@@H]1CCCN1C(=O)Cc1noc2ccccc12
MCF7 [19]
  IC50: 4.39 µM
A549 [3]
  IC50: 4.72 µM

## O=c1[nH]cc(F)c(=O)[nH]1 [FLUOROURACIL]
HT-29 [20]
  IC50: 80.6 µM
MCF7 [19]
  IC50: 45 µM
MCF7 [21]
  IC50: 78.3 µM
MCF7 [13]
  IC50: 45 µM

## COc1ccc(/C=C2\CCC[C@@]3(C2=O)[C@@H](c2ccc(OC)cc2)[C@@H]2CSCN2[C@]32C(=O)Nc3ccccc32)cc1
K562 [22]
  IC50: 14.7 µM
MCF7 [21]
  IC50: 24.4 µM

## Oc1cc2c(cc1C1CCCCC1)OCO2
M-HeLa [23]
  IC50: 14.7 µM
M-HeLa [24]
  Activity: 25%
[25]
  IC50 at 24 h: > 100 µM

## CCCCNCC(O)Cn1c2ccc(Cl)cc2c2cc(Cl)ccc21 (configuration not stated)
A549 [1]
  IC50: 6 µM
HCT-116 [2]
  IC50: 6.5 µM
MDA-MB-231
  IC50: 7.5 µM
